In the NIST ThermoML archive (doi:10.1016/j.jct.2005.12.005):
± gives the expanded uncertainty stated by the source.

Key:
[1] = 101 kPa, Liquid; for speed of sound: Sing-around technique in a fixed-path interferometer
[2] = refractive index (Na D-line) (dimensionless); settings: 101.33 kPa, Liquid

| Compound | mass density ([1]; 298.15 K) [kg/m3] | viscosity ([1]; 298.15 K) [mPa·s] | speed of sound ([1]; 298.15 K) [m/s] | mass density ([1]; 303.15 K) [kg/m3] | viscosity ([1]; 303.15 K) [mPa·s] | mass density ([1]; 308.15 K) [kg/m3] | viscosity ([1]; 308.15 K) [mPa·s] | refractive index ([2]; 298.15 K) | refractive index ([2]; 303.15 K) | refractive index ([2]; 308.15 K) |
| --- | --- | --- | --- | --- | --- | --- | --- | --- | --- | --- |
| Cc1cc(C)cc(C)c1 [1,3,5-trimethylbenzene] | 861.2 ± 1.1 | 0.667 ± 0.011 | 1346 ± 6 | 857.1 ± 1.1 | 0.622 ± 0.01 | 853 ± 1.1 | 0.586 ± 0.01 | 1.496 ± 0.0025 | 1.4936 ± 0.0025 | 1.4913 ± 0.0025 |
| Cc1ccc(C)cc1 [1,4-dimethylbenzene] | 856.7 ± 0.9 | 0.611 ± 0.009 | 1326 ± 6 | 852.3 ± 0.9 | 0.572 ± 0.009 | 848 ± 0.9 | 0.54 ± 0.008 | 1.4926 ± 0.001 | 1.4893 ± 0.001 | 1.4867 ± 0.001 |
| COc1ccccc1 [anisole] | 989.2 ± 0.4 | 1.008 ± 0.013 | 1410 ± 6 | 984.5 ± 0.4 | 0.929 ± 0.012 | 979.8 ± 0.4 | 0.861 ± 0.012 | 1.5136 ± 0.0025 | 1.5112 ± 0.0025 | 1.5088 ± 0.0025 |
| c1ccccc1 [benzene] | 873.4 ± 0.5 | 0.602 ± 0.008 | 1302 ± 5 | 868.1 ± 0.5 | 0.56 ± 0.008 | 862.7 ± 0.5 | 0.523 ± 0.007 | 1.4971 ± 0.0009 | 1.4936 ± 0.0009 | 1.4903 ± 0.0009 |
| CC1CCCCC1 [methylcyclohexane] | 765 ± 0.9 | 0.676 ± 0.009 | 1217 ± 5 | 760.7 ± 0.9 | 0.631 ± 0.009 | 756.3 ± 0.9 | 0.59 ± 0.008 | 1.4217 ± 0.001 | 1.4192 ± 0.001 | 1.4163 ± 0.001 |
